Measured values taken from patent US12138383B2, “Heating unit for use in a drug delivery device” (ALEXZA PHARMACEUTICALS, INC., priority 2007, dated 2024).

Assay: Aerosol purity of condensation aerosol vaporized from drug-coated substrate in substrate screening apparatus (HPLC of filter extract)
Assay type: physicochemical
Conditions: for Aerosol Purity (% ± SD): perforated 304 stainless steel, 0.4 mg/cm^2, approx. 375° C.; for Aerosol Purity (%): 14 μm coating, 30 liters/minute
From the text: The substrate screening apparatus 400 is made of a machined plastic (polyoxymethylene, DELRIN® Acetal Resin, DuPont, Wilmington, DE) block 402 with a 2 cm^2 cross-sectional area for mounting a substrate 412. Block 402 includes a first airway 404 extending from first inlet 414 to outlet 422. Block 402 also include a second airway 406 extending from second inlet 416 to substrate 412, where it typically joins the first airway. The substrate 412 is mounted in the substrate screening apparatus 400 across two electrodes 420. A first air flow 414 is established in first airway 404 and a second air flow 416 is established in second airway 406 such that the second air flow 416 passes from the second airway 406 to first airway 404 through holes in the substrate 412. While providing air flows 414 and 416, the substrate 412 is heated, typically by discharging a capacitor (not shown) across the substrate 412. In a one embodiment, the flow of air passing through holes in the substrate 412 is in a direction orthogonal to that of air flow 414. Substrate 412 is coated with a drug composition film. The substrate 412 is heated to vaporized all or a portion of the drug composition. The vaporized drug subsequently cools and condenses to form a condensation aerosol that is carried to the outlet by air flow 414, joined by air flow 416). Accordingly, the condensation aerosol is emitted from the outlet 422.
The test substrates were then coated with a drug composition. The drug was typically dissolved in a volatile organic solvent (e.g., dichloromethane/methanol mixture or acetone or other suitable organic solvent) and then spray-coated onto the test substrates using an automated spray coater. Coating parameters, such as the drug concentration in the coating solution, solution flow rate, were selected to obtain a uniform drug coating of the desired coating density (i.e., mass/area).
Total air flow through the substrate screening apparatus was set by providing air flows 414 and 416 at a desired ratio. (As used herein, “across” air flow refers to air flow 414 and “bottom” air flow refers to air flow 416.) Brass electrodes 420 attached to the substrate screening apparatus 400 were used to clamp the substrate 412 in place and provide electrical connections. For most experiments, a 1-Farad capacitor was used as the energy source. The capacitor was typically charged to 11-14 volts, depending on the desired substrate temperature. A high current relay was used to connect the circuit and discharge the capacitor across the substrate to induce heating and vaporization of the drug.
FIG. 5 is a schematic of another embodiment of a substrate screening apparatus 500 that was used to direct air flow through the holes of coated polyimide film (KAPTON® polyimide film) substrates (see FIGS. 2A and 2B). Substrate screening apparatus 500 is similar in configuration and operation to substrate screening apparatus 400, with the exception that substrate screening apparatus 500 includes two electrodes 502 on the same side of the screening apparatus 500, whereas substrate screening apparatus 400 includes two electrodes 420 on opposite sides of the screening apparatus 400. In the examples using polyimide film substrates described below, a polyimide film substrate coated with a drug composition was placed in substrate screening apparatus 500 across electrodes 502. A computer-controlled power supply was connected to the electrodes. The power supply was typically capable of heating the polyimide film substrate to the target temperature within 300 milliseconds, and the substrate was kept at the target temperature for a duration of 1 second.
To determine aerosol purity and emitted dose, a 2 μm Teflon filter (ZEFLUOR PTFE filters, available from Zefon International, Inc., Ocala, FL) was placed immediately downstream from the screening apparatus during aerosol generation. […]

## NCC(CC(=O)O)c1ccc(Cl)cc1 (stereo not drawn) [baclofen]
Perforated polyimide film, across:bottom 27:1, 350° C.
  drug purity (aerosol): around 20%

## CCCc1nn(C)c2c(=O)[nH]c(-c3cc(S(=O)(=O)N4CCN(C)CC4)ccc3OCC)nc12 [sildenafil free base, sildenafil]
Perforated 316 stainless steel, 1:9 across:bottom, drug coating thicknesses up to 6 μm, 28.3 liters/minute
  aerosol purity: ≥ 97%
Solid 304 stainless steel, 100% air flow across, drug coating thickness 2 μm
  aerosol purity: ≤ 94%
Solid 304 stainless steel, 100% air flow across, drug coating thicknesses greater than about 1 μm
  aerosol purity: below 97%

## CCC(=O)O[C@]1(C(=O)SCF)[C@H](C)C[C@H]2[C@@H]3C[C@H](F)C4=CC(=O)C=C[C@]4(C)[C@@]3(F)[C@@H](O)C[C@@]21C [fluticasone propionate]
Perforated polyimide film, all four test conditions (3:1 and 1:3, 325° C. and 350° C.)
  aerosol purity: > 97%

## CC1(C)O[C@@H]2C[C@H]3[C@@H]4C[C@H](F)C5=CC(=O)C=C[C@]5(C)[C@H]4[C@@H](O)C[C@]3(C)[C@]2(C(=O)CO)O1 [Flunisolide, flunisolide]
across:bottom 18:10, hole diameter 0.005″, porosity 5%
  Aerosol Purity (% ± SD): 80.1 ± 1.8%
across:bottom 18:10, hole diameter 0.005″, porosity 10%
  Aerosol Purity (% ± SD): 81.4 ± 0.9%
across:bottom 18:10, hole diameter 0.005″, porosity 20%
  Aerosol Purity (% ± SD): 90.7 ± 0.7%
across:bottom 18:10, hole diameter 0.010″, porosity 5%
  Aerosol Purity (% ± SD): 83.6 ± 1.4%
across:bottom 18:10, hole diameter 0.010″, porosity 10%
  Aerosol Purity (% ± SD): 75.4 ± 1.2%
across:bottom 18:10, hole diameter 0.010″, porosity 20%
  Aerosol Purity (% ± SD): 80.8 ± 1.4%
across:bottom 18:10, hole diameter 0.010″, porosity 40%
  Aerosol Purity (% ± SD): 85.6 ± 0.8%
across:bottom 18:10, hole diameter 0.020″, porosity 5%
  Aerosol Purity (% ± SD): 77.8 ± 2%
across:bottom 18:10, hole diameter 0.020″, porosity 10%
  Aerosol Purity (% ± SD): 77.2 ± 2.8%
across:bottom 18:10, hole diameter 0.020″, porosity 20%
  Aerosol Purity (% ± SD): 74.7 ± 1%
across:bottom 18:10, hole diameter 0.020″, porosity 40%
  Aerosol Purity (% ± SD): 81.9 ± 1.2%
across:bottom 18:10, hole diameter 0.040″, porosity 5%
  Aerosol Purity (% ± SD): 70.4 ± 1.1%
across:bottom 18:10, hole diameter 0.040″, porosity 40%
  Aerosol Purity (% ± SD): 77 ± 1%
across:bottom 23:5, hole diameter 0.005″, porosity 5%
  Aerosol Purity (% ± SD): 73.6 ± 2.3%
across:bottom 23:5, hole diameter 0.005″, porosity 10%
  Aerosol Purity (% ± SD): 82.7 ± 1.4%
across:bottom 23:5, hole diameter 0.005″, porosity 20%
  Aerosol Purity (% ± SD): 87.9 ± 2%
across:bottom 23:5, hole diameter 0.010″, porosity 5%
  Aerosol Purity (% ± SD): 76.1 ± 0.1%
across:bottom 23:5, hole diameter 0.010″, porosity 10%
  Aerosol Purity (% ± SD): 71.4 ± 0.7%
across:bottom 23:5, hole diameter 0.010″, porosity 20%
  Aerosol Purity (% ± SD): 80.6 ± 3.1%
across:bottom 23:5, hole diameter 0.010″, porosity 40%
  Aerosol Purity (% ± SD): 84.2 ± 0.1%
across:bottom 23:5, hole diameter 0.020″, porosity 5%
  Aerosol Purity (% ± SD): 77.9 ± 1.1%
across:bottom 23:5, hole diameter 0.020″, porosity 10%
  Aerosol Purity (% ± SD): 72.7 ± 1.8%
across:bottom 23:5, hole diameter 0.020″, porosity 20%
  Aerosol Purity (% ± SD): 69.9 ± 0.3%
across:bottom 23:5, hole diameter 0.020″, porosity 40%
  Aerosol Purity (% ± SD): 80 ± 1.3%
across:bottom 23:5, hole diameter 0.040″, porosity 5%
  Aerosol Purity (% ± SD): 68.6 ± 1.1%
across:bottom 23:5, hole diameter 0.040″, porosity 40%
  Aerosol Purity (% ± SD): 74.3 ± 7.3%

## C[C@@H]1C[C@H]2[C@@H]3CCC4=CC(=O)C=C[C@]4(C)[C@@]3(Cl)[C@@H](O)C[C@]2(C)[C@@]1(OC(=O)c1ccco1)C(=O)CCl
non-perforated SULFINERT-treated and heat-passivated 304 stainless steel, 350° C., no air flow ratio
  aerosol purity: poor

## CN1CCN(CCCN2c3ccccc3Sc3ccc(Cl)cc32)CC1 [Prochlorperazine, prochlorperazine]
Coated drug on polyimide film, coating thickness 14 μm
  Coated Aerosol Purity (%): 98.85%
Perforated polyimide film, 100% of air flow through the substrate, up to at least 30 μm coating thickness, 28.3 liters/minute
  aerosol purity: ≥ 98%
Perforated polyimide film, large holes, across:bottom 75:25
  Aerosol Purity (%): 97.7%
Perforated polyimide film, large holes, across:bottom 100:0
  Aerosol Purity (%): 97.1%
Perforated polyimide film, small holes, across:bottom 75:25
  Aerosol Purity (%): 97.4%
Perforated polyimide film, small holes, across:bottom 100:0
  Aerosol Purity (%): 94.8%

## cyclobenzaprine fumarate
Perforated polyimide film, all three test conditions (6:1 at 375° C., 3:1 at 350° C., 1:1 at 350° C.)
  aerosol purity: > 99.7%
